Data published in patent US20070249670A1, “Glycogen Phosphorylase Inhibitor Compounds and Pharmaceutical Compositions Thereof” (SMITHKLINE BEECHAM CORPORATION, priority 2004, published 2007).
pIC50: −log10 of the molar value. Where a name gives a salt, the structure may show the parent alone.

Target: T1, human liver glycogen phosphorylase a (HLGPa) (Homo sapiens, UniProt P06737)
T1 construct: creating a full-length cDNA fused at the 5′ end to codons for methionine-glycine-alanine-histidine; 6xHis tag (leader Met-Gly-Ala-His6-Gly-Gly) (N); made in house; host or cells: E. coli (bacterial expression plasmid pTXK1007LTev)
T1 sequence (P06737 2-847 limits assumed): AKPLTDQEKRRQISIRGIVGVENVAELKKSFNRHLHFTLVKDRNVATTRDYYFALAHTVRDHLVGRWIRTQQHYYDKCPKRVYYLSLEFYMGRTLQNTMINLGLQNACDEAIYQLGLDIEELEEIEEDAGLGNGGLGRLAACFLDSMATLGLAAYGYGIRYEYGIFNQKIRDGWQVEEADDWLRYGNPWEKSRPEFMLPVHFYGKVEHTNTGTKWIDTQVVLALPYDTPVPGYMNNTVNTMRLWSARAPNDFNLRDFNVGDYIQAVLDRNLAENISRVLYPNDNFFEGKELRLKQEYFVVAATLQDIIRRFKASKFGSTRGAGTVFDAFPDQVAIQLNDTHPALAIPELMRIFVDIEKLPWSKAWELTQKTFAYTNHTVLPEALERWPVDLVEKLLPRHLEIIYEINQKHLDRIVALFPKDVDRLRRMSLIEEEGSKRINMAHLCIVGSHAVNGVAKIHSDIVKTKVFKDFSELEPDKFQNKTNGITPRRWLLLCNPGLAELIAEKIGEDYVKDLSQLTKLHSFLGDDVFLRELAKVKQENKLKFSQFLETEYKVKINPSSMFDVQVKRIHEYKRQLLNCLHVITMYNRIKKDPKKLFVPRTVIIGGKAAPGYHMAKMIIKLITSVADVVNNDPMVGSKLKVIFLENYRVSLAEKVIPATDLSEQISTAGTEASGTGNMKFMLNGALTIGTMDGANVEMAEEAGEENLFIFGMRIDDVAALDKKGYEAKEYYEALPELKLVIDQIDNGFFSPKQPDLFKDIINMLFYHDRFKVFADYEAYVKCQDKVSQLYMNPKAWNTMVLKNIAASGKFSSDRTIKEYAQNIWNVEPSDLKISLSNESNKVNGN
Assay: Human liver glycogen phosphorylase a enzymatic activity assay (coupled, fluorescent resorufin readout, with and without 10 mM glucose)
Type: biochemical

[1] = human liver glycogen phosphorylase a enzymatic activity assay
[2] = human liver glycogen phosphorylase a, table does not say whether with or without 10 mM glucose

Row | pIC50 [1] | pIC50 [2] | Compound
1 | 5.72 | – | Cc1cc(C)c(NC(=O)Nc2cc(F)ccc2C(=O)N[C@@H](CCNC(=O)OC(C)(C)C)C(=O)O)c(C)c1 [Example 515, (2S)-4-({[(1,1-dimethylethyl)oxy]carbonyl}amino)-2-({[4-fluoro-2-({[(2,4,6-trimethylphenyl)amino]carbonyl}amino)phenyl]carbonyl}amino)butanoic acid]
2 | 5.76 | – | Cc1cccc(C)c1NC(=O)Nc1cc2ccccc2cc1C(=O)N[C@@H](CCC(=O)O)C(=O)O [Example 48, N-[3-({[(2,6-dimethylphenyl)amino]carbonyl}amino)-2-naphthoyl]-L-glutamic acid]
3 | 5.09 | – | Cc1cccc(C)c1NC(=O)Nc1cc2ccccc2cc1C(=O)N[C@@H](CCCCN)C(=O)O [Example 47, N-[3-({[(2,6-dimethylphenyl)amino]carbonyl}amino)-2-naphthoyl]-L-lysine trifluoroacetate]
4 | – | 8.40 | Cc1cc(C)c(NC(=O)Nc2cc(-c3ccc(N)cc3)ccc2C(=O)N[C@H](C(=O)O)C2CCCCC2)c(C)c1 [Example 199, (2S)-({[4′-Amino-3-({[(2,4,6-trimethylphenyl)amino]carbonyl}amino)-4-biphenylyl]carbonyl}amino)(cyclohexyl)ethanoic acid]
5 | – | 5.81 | Cc1cc(C)c(NC(=O)Nc2cc3ccccc3cc2C(=O)N[C@H](CC(=O)O)C(C)C)c(C)c1 [Example 339, (3R)-4-methyl-3-({[3-({[(2,4,6-trimethylphenyl)amino]carbonyl}amino)-2-naphthalenyl]carbonyl}amino)pentanoic acid]
6 | 5.28 | – | O=C(Nc1ccccc1Cl)Nc1cc2ccccc2cc1C(=O)N[C@@H](Cc1ccccc1)C(=O)O [Example 57, N-[3-({[(2-chlorophenyl)amino]carbonyl}amino)-2-naphthoyl]-L-phenylalanine]
7 | – | 4.76 | Cc1cc(C)c(NC(=O)Nc2cc3ccccc3cc2C(=O)N2CCN(S(C)(=O)=O)C[C@H]2C(=O)O)c(C)c1 [Example 256, (2S)-4-(methylsulfonyl)-1-{[3-({[(2,4,6-trimethylphenyl)amino]carbonyl}amino)-2-naphthalenyl]carbonyl}-2-piperazinecarboxylic acid]
8 | 6.28 | – | Cc1cccc(C)c1NC(=O)Nc1ccccc1C(=O)N[C@H](C(=O)O)C1CCCCC1 [Example 94, (2S)-cyclohexyl{[2-({[(2,6-dimethylphenyl)amino]carbonyl}amino)benzoyl]amino}acetic acid]
9 | 7.38 | – | Cc1cc(C)c(NC(=O)Nc2cc(-c3ccc(F)c(F)c3)ccc2C(=O)N[C@@H](COCc2ccccc2)C(=O)O)c(C)c1 [Example 510, N-{[3′,4′-Difluoro-3-({[(2,4,6-trimethylphenyl)amino]carbonyl}amino)-4-biphenylyl]carbonyl}-O-(phenylmethyl)-L-serine]
10 | – | 7.42 | CCCc1cc(C)c(NC(=O)Nc2cc(Cl)cnc2C(=O)NC2(C(=O)O)CCCCCCC2)c(C)c1 [Example 320, 1-({[5-Chloro-3-({[(2,6-dimethyl-4-propylphenyl)amino]carbonyl}amino)-2-pyridinyl]carbonyl}amino)cyclooctanecarboxylic acid]
11 | – | 8.22 | Cc1cc(C)c(NC(=O)Nc2cc(-c3ccc(CN4CCCC4)cc3)ccc2C(=O)N[C@H](C(=O)O)C2CCCCC2)c(C)c1 [Example 216, (2S)-Cyclohexyl({[4′-(1-pyrrolidinylmethyl)-3-({[(2,4,6-trimethylphenyl)amino]carbonyl}amino)-4-biphenylyl]carbonyl}amino)ethanoic acid]
12 | 5.57 | – | O=C(Nc1sc(-c2cccnc2)cc1C(=O)O)Nc1c(Cl)cccc1Cl [Example 414, 2-({[(2,6-dichlorophenyl)amino]carbonyl}amino)-5-(3-pyridinyl)-3-thiophenecarboxylic acid]
13 | 6.27 | – | Cc1cccc(C)c1NC(=O)Nc1cc2ccccc2cc1C(=O)N[C@@H](Cc1cccs1)C(=O)O [Example 98, N-{[3-({[(2,6-dimethylphenyl)amino]carbonyl}amino)-2-naphthalenyl]carbonyl}-3-(2-thienyl)-L-alanine]
14 | – | 6.85 | COc1ccc(-c2ccc(C(=O)N[C@H](c3nn[nH]n3)C3CCCCC3)c(NC(=O)Nc3c(C)cc(C)cc3C)c2)cc1 [Example 205, N—[(S)-cyclohexyl(1H-tetrazol-5-yl)methyl]-4′-(methyloxy)-3-({[(2,4,6-trimethylphenyl)amino]carbonyl}amino)-4-biphenylcarboxamide]
15 | – | 8.05 | Cc1cc(C)c(NC(=O)Nc2cc(-c3ccc(F)cc3)ccc2C(=O)N[C@H](C(=O)O)C2CCCCC2)c(C)c1 [Example 223, (2S)-Cyclohexyl({[4′-fluoro-3-({[(2,4,6-trimethylphenyl)amino]carbonyl}amino)-4-biphenylyl]carbonyl}amino)ethanoic acid]
16 | – | 5.21 | Cc1cc(C)c(NC(=O)Nc2cc3ccccc3cc2C(=O)NC2(C(=O)O)CCNCC2)c(C)c1 [Example 288, 4-({[3-({[(2,4,6-trimethylphenyl)amino]carbonyl}amino)-2-naphthalenyl]carbonyl}amino)-4-piperidinecarboxylic acid trifluoroacetate]
17 | – | 6.01 | Cc1cccc(C)c1NC(=O)Nc1cc2ccccc2cc1C(=O)N(CC(=O)O)C1CCCC1 [Example 244, N-cyclopentyl-N-{[3-({[(2,6-dimethylphenyl)amino]carbonyl}amino)-2-naphthalenyl]carbonyl}glycine]
18 | 4.95 | – | COC(=O)[C@H](CC(=O)N(C)C)NC(=O)c1ccc(-c2ccc(OC)cc2)cc1NC(=O)Nc1c(C)cc(C)cc1C [Example 503, methyl N^4,N^4-dimethyl-N^2-{[4′-(methyloxy)-3-({[(2,4,6-trimethylphenyl)amino]carbonyl}amino)-4-biphenylyl]carbonyl}-L-asparaginate]
19 | 6.69 | – | Cc1cc(C)c(NC(=O)Nc2cc(-c3cc(F)c(F)c(F)c3)sc2C(=O)NC2(C(=O)O)CCCCC2)c(C)c1 [Example 535, 1-({[5-(3,4,5-trifluorophenyl)-3-({[(2,4,6-trimethylphenyl)amino]carbonyl}amino)-2-thienyl]carbonyl}amino) cyclohexanecarboxylic acid]
20 | 6.05 | – | CC[C@H](C)[C@H](NC(=O)c1cc2ccccc2cc1NC(=O)Nc1c(C)cccc1C)C(=O)O [Example 23, N-[3-({[(2,6-dimethylphenyl)amino]carbonyl}amino)-2-naphthoyl]-L-isoleucine]
21 | 4.52 | – | Cc1ccccc1NC(=O)Nc1cc2ccccc2cc1C(=O)N[C@H](C(=O)O)C1CCCCC1 [Example 143, (2S)-cyclohexyl{[3-({[(2-methylphenyl)amino]carbonyl}amino)-2-naphthoyl]amino}acetic acid]
22 | 5.53 | – | O=C(Nc1sc(-c2ccc(F)cc2)cc1C(=O)O)Nc1c(Cl)cccc1Cl [Example 418, 2-({[(2,6-dichlorophenyl)amino]carbonyl}amino)-5-(4-fluorophenyl)-3-thiophenecarboxylic acid]
23 | 4.54 | – | Cc1noc(C)c1NC(=O)Nc1cc2ccccc2cc1C(=O)N[C@@H](CC(=O)O)C(=O)O [Example 147, N-{[3-({[(3,5-dimethyl-4-isoxazolyl)amino]carbonyl}amino)-2-naphthalenyl]carbonyl}-L-aspartic acid]
